Reference: publication PMC7866087, “Evaluation of Computationally Designed Peptides against TWEAK, a Cytokine of the Tumour Necrosis Factor Ligand Family” (International Journal of Molecular Sciences, 2021)
Where “and” joins values, the source holds several entries; their conditions need not be identical. Equal entries are not always repeated.

System: TWEAK-Fn14 signalling pathway, BRV5 cells
Assay: Cell-based screening of individual peptides, gene expression microarray in TWEAK-stimulated BRV5 cells
Design: species or system human
Settings: 6 h; for regulation of probe genes by individual peptides: BRV5 + TWEAK 25 ng/mL, peptides 450 µM; for BIRC2 mRNA expression (normalized to NARS2) / HSP90B1 mRNA expression (normalized to NARS2) / IL6 mRNA expression (normalized to NARS2) / JUN mRNA expression (normalized to NARS2) / MAP4K4 mRNA expression (normalized to NARS2) / MAPK14 mRNA expression (normalized to NARS2) / NFKB2 mRNA expression (normalized to NARS2) / TNFRSF12A mRNA expression (normalized to NARS2) / TRAF2 mRNA expression (normalized to NARS2) / BIRC2 expression Z-Score / HSP90B1 expression Z-Score / IL6 expression Z-Score / JUN expression Z-Score / MAP4K4 expression Z-Score / MAPK14 expression Z-Score / NFKB2 expression Z-Score / TNFRSF12A expression Z-Score / TRAF2 expression Z-Score: individual peptides, BRV5 + TWEAK; for BIRC2 mRNA expression (normalized to NARS2) / HSP90B1 mRNA expression (normalized to NARS2) / IL6 mRNA expression (normalized to NARS2) / JUN mRNA expression (normalized to NARS2) / MAP4K4 mRNA expression (normalized to NARS2) / MAPK14 mRNA expression (normalized to NARS2) / NFKB2 mRNA expression (normalized to NARS2) / TNFRSF12A mRNA expression (normalized to NARS2) / TRAF2 mRNA expression (normalized to NARS2): 450 µM; for BIRC2 expression Z-Score / HSP90B1 expression Z-Score / IL6 expression Z-Score / JUN expression Z-Score / MAP4K4 expression Z-Score / MAPK14 expression Z-Score / NFKB2 expression Z-Score / TNFRSF12A expression Z-Score / TRAF2 expression Z-Score: normalized to NARS2
Source text: Pool 1 and 5 were therefore deconstructed to assess the effect of individual peptides and their activity on same cell-based screening. Pools 1 and 5 were composed of peptides 45, 46, 42, 3, 49, 11, and 13; and of peptides 1, 9, 30, 35, 41, 43, 7, and 14, respectively. As before, and shown in Figure 4B, the level of expression of probe genes on TWEAK-stimulated (T) BRV5 cells is overall higher than on non-stimulated (NT) one. […] The structural model of peptides 43, 30, 35 and 49 bound to TWEAK can be seen in Figure 5 and Supplementary Materials Figures S4–S6, respectively.
Three different cell lines were used in this study: BRV5, MDA-MB 435 (435-P), and HT29. The BRV5 is a highly metastatic brain cell line, obtained in one of our laboratories by primary culture from a brain of a nude mouse inoculated with human 435-Br1 brain metastatic cells, as previously described and used as a model to test the peptides in cell cultures. […] The triple negative 435-P cell line is a useful human breast cancer model that expresses both epithelial and melanocytic markers, and was included as the parental cell from which 435-Br1 metastatic variant was initially originated (both cell lines kindly provided by Dr Fabra at IDIBELL Institute, Hospitalet de Llobregat, Spain). Finally, HT29 human colon carcinoma cells obtained from the European Type Culture Collection (ECACC 91072201) were used as a positive control of TWEAK dependent Fn14 over-expressing cells to evaluate TWEAK-Fn14 axis of brain metastatic variants.
Appropriate cell culture conditions were established as the controls needed in the expression of genes with and without peptides and with and without TWEAK activation, both as pools and individually (see Supplementary Materials Figure S2). The protocol started with the seeding of 125,000 cells/well in 500 µL of culture media supplemented with 10% fetal bovine serum (CM+FBS10%) in 24-well dishes for 24 h before removing FBS (CM-FBS). After overnight starvation in CM-FBS culture, different peptide treatment conditions (at final concentration of 450 µM) were established in the presence or absence of TWEAK (25 ng/mL final concentration) (Peprotech EC, Ltd., London, UK). Some cells were treated with peptides at a single, unique, initial dose (time 0) while other were treated with repeated doses to account for the effect cell-culture degradation. These include a repeated treatment every hour (i.e., […]), every two hours (time 0, 2, and 4) and every three hours (time 0 and 3)—see Supplementary Materials Figure S2 for diagrammatic depiction. At time 6 (after six hours) cells were lysed and RNA extracted for transcriptomic analyses (see next). Cell were culture for six hours as this was the time needed to achieve the highest upregulation of the TWEAK-Fn14 axis upon TWEAK treatment as shown in previous time-course RT-PCR experiments (see Figure 2).
RNA from cells was extracted 6 h after treatments by direct lysis on the well. The RNeasy Micro kit (Qiagen, Hilden, Germany) was used to isolate total RNA from cell lysate following manufacturer’s protocols including an additional step of digestion with DNase I (Qiagen, Hilden, Germany). Total RNA concentration was measured in a NanoDrop 1000 spectrophotometer (Thermo Scientific, Waltham, MA, USA). The RNA extracted from treated and untreated cells (see above) was used as a proxy for gene expression.
The quantitative RT-PCR was performed using Fluidigm Dynamic Array FlexSix array with the specific primers for gene expression (Delta Genes Assays, Wet lab tested on Dynamic Array IFC) designed to RefSeq for detection by pPCR EvaGreen assay (Dynamic Array FlexSix, Fluidigm Corporation). Each Flex Six IFC has a total of six independent partitions. Each partition has a 12 × 12 format (12 assay inlets and 12 sample inlets) and will be run independently as a separate experimental run. […]

| Substance | BIRC2 mRNA expression (normalized to NARS2) (mean of replicate columns) | HSP90B1 mRNA expression (normalized to NARS2) (mean of replicate columns) | IL6 mRNA expression (normalized to NARS2) (mean of replicate columns) | JUN mRNA expression (normalized to NARS2) (mean of replicate columns) | MAP4K4 mRNA expression (normalized to NARS2) (mean of replicate columns) | MAPK14 mRNA expression (normalized to NARS2) (mean of replicate columns) | NFKB2 mRNA expression (normalized to NARS2) (mean of replicate columns) | TNFRSF12A mRNA expression (normalized to NARS2) (mean of replicate columns) | TRAF2 mRNA expression (normalized to NARS2) (mean of replicate columns) | BIRC2 mRNA expression (normalized to NARS2) (replicate column 1) | HSP90B1 mRNA expression (normalized to NARS2) (replicate column 1) | IL6 mRNA expression (normalized to NARS2) (replicate column 1) | JUN mRNA expression (normalized to NARS2) (replicate column 1) | MAP4K4 mRNA expression (normalized to NARS2) (replicate column 1) | MAPK14 mRNA expression (normalized to NARS2) (replicate column 1) | NFKB2 mRNA expression (normalized to NARS2) (replicate column 1) | TNFRSF12A mRNA expression (normalized to NARS2) (replicate column 1) | TRAF2 mRNA expression (normalized to NARS2) (replicate column 1) | BIRC2 mRNA expression (normalized to NARS2) (replicate column 2) | HSP90B1 mRNA expression (normalized to NARS2) (replicate column 2) | further results |
| --- | --- | --- | --- | --- | --- | --- | --- | --- | --- | --- | --- | --- | --- | --- | --- | --- | --- | --- | --- | --- | --- |
| 11: SGVAYQETT [Peptide 11] | 0.6438 | 2.54 | 0.001558 | 0.1006 | 0.1986 | 0.2184 | 0.047 | 0.01869 | 0.01037 | 0.6157 | 2.376 | 0.001178 | 0.09818 | 0.2001 | 0.2179 | 0.04834 | 0.01871 | 0.01036 | 0.6719 | 2.704 | regulation of probe genes by individual peptides: induced a higher level of expression of the gene; IL6 mRNA expression (normalized to NARS2) (replicate column 2): 0.001938; JUN mRNA expression (normalized to NARS2) (replicate column 2): 0.1029; MAP4K4 mRNA expression (normalized to NARS2) (replicate column 2): 0.1972; MAPK14 mRNA expression (normalized to NARS2) (replicate column 2): 0.219; NFKB2 mRNA expression (normalized to NARS2) (replicate column 2): 0.04567; TNFRSF12A mRNA expression (normalized to NARS2) (replicate column 2): 0.01867; TRAF2 mRNA expression (normalized to NARS2) (replicate column 2): 0.01038; BIRC2 expression Z-Score (listed as P11): 0.5906; HSP90B1 expression Z-Score (listed as P11): 0.5337; IL6 expression Z-Score (listed as P11): -0.2862; JUN expression Z-Score (listed as P11): 0.0366 and 0.03662; MAP4K4 expression Z-Score (listed as P11): 0.3403; MAPK14 expression Z-Score (listed as P11): 0.3151; NFKB2 expression Z-Score (listed as P11): 0.622; TNFRSF12A expression Z-Score (listed as P11): -0.2085; TRAF2 expression Z-Score (listed as P11): -0.4411 |
| 13: YSGYFGGFY [Peptide 13] | 0.4307 | 2.183 | 0.005226 | 0.4257 | 0.2531 | 0.2388 | 0.05228 | 0.02853 | 0.02474 | 0.4177 | 2.2352 | 0.005457 | 0.419 | 0.2593 | 0.2431 | 0.05087 | 0.02856 | 0.02503 | 0.4436 | 2.131 | regulation of probe genes by individual peptides: to some extent, 13 induced a higher level of expression of the gene; IL6 mRNA expression (normalized to NARS2) (replicate column 2): 0.004995; JUN mRNA expression (normalized to NARS2) (replicate column 2): 0.4325; MAP4K4 mRNA expression (normalized to NARS2) (replicate column 2): 0.2468; MAPK14 mRNA expression (normalized to NARS2) (replicate column 2): 0.2344; NFKB2 mRNA expression (normalized to NARS2) (replicate column 2): 0.05368; TNFRSF12A mRNA expression (normalized to NARS2) (replicate column 2): 0.0285; TRAF2 mRNA expression (normalized to NARS2) (replicate column 2): 0.02446; BIRC2 expression Z-Score (listed as P13): -0.8852; HSP90B1 expression Z-Score (listed as P13): -0.101; IL6 expression Z-Score (listed as P13): 2.8881 and 2.888; JUN expression Z-Score (listed as P13): 3.7769 and 3.777; MAP4K4 expression Z-Score (listed as P13): 1.699; MAPK14 expression Z-Score (listed as P13): 0.6701; NFKB2 expression Z-Score (listed as P13): 1.124; TNFRSF12A expression Z-Score (listed as P13): 0.91; TRAF2 expression Z-Score (listed as P13): 0.255 |
| SGVSTAQLD [Peptide 4] | 0.6267 | 2.423 | 0.001966 | 0.1025 | 0.2128 | 0.1993 | 0.04458 | 0.01499 | 0.01397 | 0.6069 | 2.308 | 0.001514 | 0.09341 | 0.1972 | 0.1927 | 0.04237 | 0.01676 | 0.01481 | 0.6465 | 2.538 | regulation of probe genes by individual peptides: induced a higher level of expression of the gene; IL6 mRNA expression (normalized to NARS2) (replicate column 2): 0.002418; JUN mRNA expression (normalized to NARS2) (replicate column 2): 0.1116; MAP4K4 mRNA expression (normalized to NARS2) (replicate column 2): 0.2284; MAPK14 mRNA expression (normalized to NARS2) (replicate column 2): 0.2059; NFKB2 mRNA expression (normalized to NARS2) (replicate column 2): 0.04678; TNFRSF12A mRNA expression (normalized to NARS2) (replicate column 2): 0.01322; TRAF2 mRNA expression (normalized to NARS2) (replicate column 2): 0.01313; BIRC2 expression Z-Score (listed as P4): 0.4721; HSP90B1 expression Z-Score (listed as P4): 0.3256; IL6 expression Z-Score (listed as P4): 0.0669 and 0.06688; JUN expression Z-Score (listed as P4): 0.0589 and 0.05892; MAP4K4 expression Z-Score (listed as P4): 0.6937; MAPK14 expression Z-Score (listed as P4): -0.0192 and -0.01918; NFKB2 expression Z-Score (listed as P4): 0.3908; TNFRSF12A expression Z-Score (listed as P4): -0.6289; TRAF2 expression Z-Score (listed as P4): -0.2666 |
| 46: TGYAENV [Peptide 46] | 0.5415 | 2.314 | 0.00187 | 0.08801 | 0.2105 | 0.2302 | 0.05417 | 0.01829 | 0.01616 | 0.5372 | 2.32 | 0.00168 | 0.08305 | 0.1965 | 0.2456 | 0.05593 | 0.0189 | 0.01641 | 0.5458 | 2.3087 | IL6 mRNA expression (normalized to NARS2) (replicate column 2): 0.002059; JUN mRNA expression (normalized to NARS2) (replicate column 2): 0.09296; MAP4K4 mRNA expression (normalized to NARS2) (replicate column 2): 0.2245; MAPK14 mRNA expression (normalized to NARS2) (replicate column 2): 0.2147; NFKB2 mRNA expression (normalized to NARS2) (replicate column 2): 0.05241; TNFRSF12A mRNA expression (normalized to NARS2) (replicate column 2): 0.01767; TRAF2 mRNA expression (normalized to NARS2) (replicate column 2): 0.01592; BIRC2 expression Z-Score (listed as P46): -0.118; HSP90B1 expression Z-Score (listed as P46): 0.1322; IL6 expression Z-Score (listed as P46): -0.0166 and -0.01658; JUN expression Z-Score (listed as P46): -0.1078; MAP4K4 expression Z-Score (listed as P46): 0.6365; MAPK14 expression Z-Score (listed as P46): 0.5199; NFKB2 expression Z-Score (listed as P46): 1.3042 and 1.304; TNFRSF12A expression Z-Score (listed as P46): -0.2543; TRAF2 expression Z-Score (listed as P46): -0.1604 |
